Experimental data: patent US6126795A, “Electroenzymatic reactor and method for enzymatic catalysis” (The United States of America as represented by the …, priority 1998, dated 2000)

Tests used:
CYP101 = CYP101 (Pseudomonas putida, UniProt P00183); test: Electrode-driven camphor hydroxylation by CYP101/Pdx in electroenzymatic reactor; assay type: biochemical
From the text: The proteins were then purified using ion-exchange chromatography and size exclusion chromatography. The final protein preparations were at least 95% pure. On the basis of absorbance ratios, the mole fraction purity ×100 of each subunit protein was greater than 90. In addition, several preparations of the proteins were examined by high-resolution two-dimensional gel electrophoresis and by imaging analysis, and the mole fraction purity ×100 was estimated to be greater than 97 for each protein.
The working electrodes used in the following examples were antimony-doped, tin-oxide coated (0.3 μm thickness) glass slides (4×2 cm, Delta Technologies, Stillwater, Min.), with donor concentration as determined from Mott-Schottky plots (Nd =5×10^20 cm^-3). Prior to the biocatalysis experiments, the electrodes were soaked and sonicated in 1 M NaOH for approximately two hours, then rinsed with distilled water. They were activated in 15% HCl solution using a potential sweep between -0.5 and 1.5 V at 10 mV/s, and stored in distilled water. Film electrode resistance, as measured by a four point probe (Cascade Mictrotech, Inc., Model C4A-44 Beaverton, Oreg.), was 40-50 .OMEGA./sq.
The reference electrode was a standard Ag/AgCl (3M KCl) reference micro-electrode (Abtech Inc. RE803). The counter electrode was made as a coil of 0.5 mm thick Pt wire.
The buffer media was prepared using 0.16 M aqueous KCl and 0.01 M aqueous MgCl2, adjusted to about pH 7.4 with Tris-HCl buffer.
The product, 5-exo-hydroxy-camphor, was identified by GC-MS (gas chromatography and mass spectrophotometry) and quantified by GC-FID (gas chromatography and flame ionization detection). GC injection samples of 1-2 μL were prepared from approximately equal volumes of reaction mixture and an extraction cocktail comprising 0.3 g methylene chloride and 0.02 g KCl with 300 μM n-decane as an internal standard. The GC was operated with a DB-5 column (J&W Scientific, Folsom, Calif.) (30 m) with temperature programing (2 minutes at 60° C., ramp at 10° C./min to 120° C., 2 min at 120° C., ramp up at 15° C./min 160° C.). Retention times (He carrier gas at 2.8 bar pressure) were: n-decane 4.7 minutes, camphor 7.0 minutes, 5-exo-hydroxy-camphor 10.9 minutes. […] Identification of 5-exo-hydroxy-camphor as the product was done by comparing the m/e (mass/charge ratio) pattern (VG analytical Mass Spectrometer, 70 eV electron impact energy) with published spectra; see White et al., Arch. Biochem. Biophys.228, 493-502, 1984, the disclosure of which is incorporated herein by reference.
The same cell as described in Example 1 was equipped with two antimony-doped, tin-oxide electrodes and one platinum wire counter electrode. […] Electrolysis was started by applying a potential equal to -0.7 V (vs Ag/AgCl) to the tin oxide electrodes. […] Therefore, the enzyme underwent about 20 turnovers during the four hour period.
The same cell as described in Example 1 was equipped with-one antimony-doped, tin-oxide electrode and a Pt wire counter electrode isolated by a glass frit. A Pt sheet (0.5×10×30 mm) was positioned close to the surface of the working electrode. […] Initial GC analysis indicated no trace of the product. A potential equal to -0.7 V (vs Ag/AgCl) was applied to the tin oxide electrode. The Pt sheet was left at open circuit potential. After 5 hours of electrolysis, during which the solution was stirred by a magnetic stirrer, 442 μM product (5-exo-hydroxy-camphor) was detected by GC analysis. This corresponds to 1922 turnovers of the enzyme at an average rate of 384 turnovers/hour.
An antimony-doped, tin-oxide working electrode was wrapped in a Pt grid, which was electrically isolated from the conductive side of the electrode. A Pt wire, isolated from the working electrode and Pt grid by a glass frit, was utilized as a counter electrode. […]

[1] = Pdx integrity/activity after electrolysis and redox behaviour on antimony-doped tin-oxide electrode; assay type: physicochemical
Procedure: In a 1 cm path-length spectrophotometer cell, with 30 μM Pdx in the above-specified buffer, a potential of -0.7 V (vs. Ag/AgCl) was applied using a potentiostat, and an absorption spectrum was recorded through the transparent SnO2 electrode and 1 cm of reactor solution. The electrode surface area to solution volume ratio was about 5/m. A characteristic absorption spectrum of the oxidized Pdx was recorded initially. After 30 minutes of electrolytic reduction at -0.7 V, a characteristic spectrum of reduced Pdx was recorded. After an additional 30 minutes of electrolysis, the potential was switched to 0 V and a characteristic spectrum of oxidized Pdx was obtained. After electrolysis was complete, 50% of the initial activity of Pdx was recovered, as determined by the method described in Phillips and Langdon, J. Biol. Chem., 237, 2652 (1962), the disclosure of which is incorporated herein by reference. […] The recorded current-potential dependencies were stable and reproducible throughout the 6 hour period. […] The method described in this Example can be used to determine whether the working electrode has redox activity toward the redox carrier.
An antimony-doped, tin-oxide working electrode was wrapped in a Pt grid, which was electrically isolated from the conductive side of the electrode. A Pt wire, isolated from the working electrode and Pt grid by a glass frit, was utilized as a counter electrode. […] After 15.5 hours or electrolysis at -0.65 V (vs Ag/AgCl) and room temperature with continuous stirring, the solution contained 222 μM of product (5-exo-hydroxy-camphor), which corresponds to 1127 turnovers of the enzyme.

Row | Molecule | Product Turnover Rate (CYP101; 12.8 μM CYP101 (no Pdx), Argon Purge, 800 μM camphor, -0.7 V, 21-22° C.) | Product Turnover Rate (CYP101; 41 μM Pdx (no CYP101), Argon Purge, 800 μM camphor, -0.7 V, 21-22° C.) | Product Turnover Rate (CYP101; 41 μM Pdx + 0.41 μM CYP101, Air Saturated, 800 μM camphor, -0.7 V, 21-22° C.) | Product Turnover Rate (CYP101; 55 μM Pdx + 0.18 μM CYP101, Argon Purge, 800 μM camphor, -0.7 V, 21-22° C.) | Product Turnover Rate (CYP101; 108 μM Pdx + 0.23 μM CYP101, Argon Purge, 800 μM camphor, -0.7 V, 21-22° C.) | Product Turnover Rate (CYP101; 1030 μM Pdx + 0.13 μM CYP101, Argon Purge, initial camphor 2 mM, -0.7 V, 21-22° C.) | Product Turnover Rate (CYP101; 1030 μM Pdx + 0.13 μM CYP101, Argon Purge, initial camphor concentration was mM, 37° C., -0.7 V) | turnovers of the enzyme (CYP101; Example 2: 10 μM CYP101, 118 μM Pdx, 600 μM camphor, -0.7 V, 240 minutes, argon purge) | average rate of enzyme turnover (CYP101; Example 3: 0.23 μM CYP101, 108 μM Pdx, 626 μM camphor, -0.7 V, 5 hours) | turnovers of the enzyme (CYP101; Example 3: 0.23 μM CYP101, 108 μM Pdx, 626 μM camphor, -0.7 V, 5 hours, Pt sheet near working electrode) | turnovers of the enzyme (CYP101; Example 4: 0.2 μM CYP101, 101 μM Pdx, 650 μM camphor, -0.65 V, 15.5 hours, room temperature, Pt grid) | formal potential [1] | initial activity of Pdx recovered after electrolysis ([1]; Example 1: 30 μM Pdx, electrolysis at -0.7 V then 0 V on SnO2 electrode) | Pdx remaining intact after electrolysis (% of the initial concentration) ([1]; Example 4: 101 μM initial Pdx, 15.5 hours at -0.65 V) | Pdx remaining intact after electrolysis (concentration) ([1]; Example 4: 101 μM initial Pdx, 15.5 hours at -0.65 V, spectrophotometric analysis)
1 | CC12CCC(CC1=O)C2(C)C (stereo not drawn) [camphor] | 0 nmol 5exo-hydroxy-camphor/min/ | 0 nmol 5exo-hydroxy-camphor/min/ | 0.9 nmol 5exo-hydroxy-camphor/min/ | 4.2 nmol 5exo-hydroxy-camphor/min/ | 6.4 nmol 5exo-hydroxy-camphor/min/ | 34 nmol 5exo-hydroxy-camphor/min/ | 36 nmol 5exo-hydroxy-camphor/min/ | about 20 turnovers | 384 turnovers/hour | 1922 turnovers | 1127 turnovers |  |  |  | 
2 | Pdx: putidaredoxin, a 2Fe-2S protein, redox carrier of the CYP101 system (protein, UniProt P00259 2-107, looked up) Putidaredoxin: SKVVYVSHDGTRRELDVADGVSLMQAAVSNGIYDIVGDCGGSASCATCHVYVNEAFTDKVPAANEREIGMLECVTAELKPNSRLCCQIIMTPELDGIVVDVPDRQW |  |  |  |  |  |  |  |  |  |  |  | -0.42 V vs Ag/AgCl | 50% | about 85% | about 85 μM
